Laboratory results: US20240174618A1, “SUBSTITUTED (2-HETEROARYLOXYPHENYL)SULFONATES, SALTS THEREOF AND THEIR USE AS HERBICIDAL AGENTS” (Bayer Aktiengesellschaft, priority 2021, published 2024)

What was measured:
Assay type in all cases: in vivo
[1] = test system: Setaria viridis (SETVI); experiment: A. Herbicidal pre-emergence efficacy, SETVI
How it was run: (§1)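 Applied before emergence onto covering soil at rates of 1280 g/ha or less, using 600 L/ha spray water with 0.5% additive. Scoring: visual % efficacy after ~3 weeks, greenhouse.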

[2] = test system: Stellaria media (STEME); experiment: A. Herbicidal pre-emergence efficacy, STEME
How it was run: as §1

[3] = test system: Amaranthus retroflexus (AMARE); experiment: B. Herbicidal post-emergence efficacy, AMARE
How it was run: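 Readout: visual % kill vs untreated, ~3 wk post-spray. Plants in sandy loam pots, treated at one-leaf stage; spray = WP/EC in water + 0.5% additive, 600 L/ha, dose ≤1280 g/ha.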

[4] = test system: Amaranthus retroflexus (AMARE); experiment: C. Herbicidal pre-emergence efficacy, AMARE; details: scored after about 3 weeks
How it was run: (§2)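 Pre-emergence test: formulated compounds sprayed as aqueous suspension or emulsion with 0.5% additive at 600 l/ha onto soil covering sown seeds, at rates corresponding to 320 g/ha or less. After about 3 weeks in greenhouse, efficacy scored visually as percent versus untreated controls (100% = plants dead).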

[5] = test system: Polygonum convolvulus (POLCO); experiment: C. Herbicidal pre-emergence efficacy, POLCO; details: scored after about 3 weeks
How it was run: as §2

[6] = test system: Triticum aestivum (TRZAS); experiment: D. Pre-emergence effect on useful plants, TRZAS; details: useful plant
How it was run: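 Seeds sown in pots and covered with soil; WP or EC formulations sprayed on the soil surface as aqueous suspension/emulsion with 0.5% additive at 600 l/ha water. Plants grown in greenhouse; crop damage scored visually after about 3 weeks as % versus untreated controls (100% = dead, 0% = like control).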

[7] = test system: Abutilon theophrasti (ABUTH); experiment: E. Herbicidal post-emergence efficacy, ABUTH
How it was run: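 Compounds applied at 320 g/ha or less as a foliar spray (600 l/ha, 0.5% additive) to one-leaf-stage greenhouse plants grown in sandy loam. Damage is visually scored in percent relative to untreated plants after about 3 weeks.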

[8] = test system: Digitaria sanguinalis (DIGSA); experiment: C. Herbicidal pre-emergence efficacy, DIGSA; details: scored after about 3 weeks
How it was run: as §2

| SMILES | Pre-emergence efficacy against SETVI ([1]; dosage 80 g/ha) [%] | Pre-emergence efficacy against SETVI ([1]; dosage 320 g/ha) [%] | Pre-emergence efficacy against SETVI ([1]; dosage 1280 g/ha) [%] | Pre-emergence efficacy against STEME ([2]; dosage 80 g/ha) [%] | Pre-emergence efficacy against STEME ([2]; dosage 320 g/ha) [%] | Pre-emergence efficacy against STEME ([2]; dosage 1280 g/ha) [%] | Post-emergence efficacy against AMARE ([3]; 80 g/ha) [%] | Post-emergence efficacy against AMARE ([3]; 320 g/ha) [%] | Post-emergence efficacy against AMARE ([3]; 1280 g/ha) [%] | Pre-emergence efficacy against AMARE ([4]; 80 g/ha) [%] | Pre-emergence efficacy against AMARE ([4]; 320 g/ha) [%] | Pre-emergence efficacy against POLCO ([5]; 80 g/ha) [%] | Pre-emergence efficacy against POLCO ([5]; 320 g/ha) [%] | Pre-emergence efficacy against TRZAS in % ([6]; application rate 80 g/ha) [%] | Post-emergence efficacy against ABUTH in % ([7]; application rate 320 g/ha) [%] | Pre-emergence efficacy against DIGSA ([8]; 80 g/ha) [%] | Pre-emergence efficacy against DIGSA ([8]; 320 g/ha) [%] | Post-emergence efficacy against ABUTH in % ([7]; application rate 80 g/ha) [%] | Pre-emergence efficacy against TRZAS in % ([6]; application rate 320 g/ha) [%] |
| --- | --- | --- | --- | --- | --- | --- | --- | --- | --- | --- | --- | --- | --- | --- | --- | --- | --- | --- | --- |
| O=S(=O)(CCCCl)Oc1ccccc1Oc1ncc(Cl)cn1 [Example I-2] | 100 | 100 | 100 | 100 | 100 | 100 | 100 | 100 | 100 | 100 | 100 | 90 | 100 | 0 | 100 |  |  |  |  |
| O=S(=O)(CCC(F)(F)F)Oc1ccccc1Oc1ncc(Cl)cn1 [Example I-8] | 100 | 100 | 100 | 100 | 100 | 100 | 90 | 100 | 100 | 100 | 100 | 90 | 90 | 20 | 100 | 100 | 100 | 90 |  |
| O=S(=O)(CCl)Oc1ccccc1Oc1ncc(Cl)cn1 [Example I-9] |  | 100 | 100 |  | 100 | 100 | 90 | 100 | 100 | 100 | 100 |  | 90 | 20 | 80 |  | 100 | 80 |  |
| Cc1cccc(OS(=O)(=O)CCCCl)c1Oc1ncc(Cl)cn1 [Example I-12] |  | 100 | 100 |  | 100 | 100 |  | 90 | 100 | 100 | 100 |  |  | 0 | 90 | 90 | 100 |  |  |
| O=S(=O)(CC1CC1)Oc1ccccc1Oc1ncc(Cl)cn1 [Example I-23] |  |  | 100 | 100 | 100 | 100 | 100 | 100 | 100 | 100 | 100 | 100 | 100 | 0 | 90 | 100 | 100 |  |  |
| CCCCCS(=O)(=O)Oc1ccccc1Oc1ncc(Cl)cn1 [Example I-24] |  | 100 | 100 |  | 100 | 100 | 90 | 100 | 100 | 100 | 100 |  | 80 | 0 | 90 | 90 | 100 |  | 0 |
| C=CCS(=O)(=O)Oc1ccccc1Oc1ncc(Cl)cn1 [Example I-36] |  |  | 100 |  |  | 90 |  | 90 | 100 |  | 100 |  | 90 | 0 |  |  | 100 |  | 0 |
| Cc1cccc(Oc2ncc(F)cn2)c1OS(=O)(=O)CCC(F)(F)F [Example I-45] | 90 | 100 | 100 | 90 | 100 | 100 |  |  |  | 80 | 100 | 100 | 100 | 0 |  | 100 | 100 |  |  |
| C=CCCS(=O)(=O)Oc1c(F)cccc1Oc1ncc(Cl)cn1 [Example I-50] | 90 | 90 | 100 |  | 100 | 100 | 90 | 90 | 100 | 100 | 100 | 80 | 90 | 0 |  | 100 | 100 |  |  |
| COCCS(=O)(=O)Oc1c(F)cccc1Oc1ncc(Cl)cn1 [Example I-52] |  | 100 | 100 | 90 | 90 | 100 |  | 90 | 90 | 100 | 100 | 90 | 100 | 0 |  | 80 | 100 |  |  |
| O=S(=O)(CCC(F)=C(F)F)Oc1c(F)cccc1Oc1ncc(Cl)cn1 [Example I-70] |  |  |  |  |  |  |  |  |  | 100 | 100 | 100 | 100 | 0 | 90 | 100 | 100 | 80 |  |
| N#Cc1cccc(Oc2ncc(Cl)cn2)c1OS(=O)(=O)CCCC(F)(F)F [Example I-81] |  |  |  |  |  |  |  |  |  | 100 | 100 | 80 | 90 | 0 | 90 | 100 | 100 | 80 |  |
